Here are results for 15 compounds from ChEMBL document CHEMBL3217478, “Necrosulfonamide inhibits necroptosis by selectively targeting the mixed lineage kinase domain-like protein” (2014).

Structures are written as SMILES. Activity calls are given as the source filed them. No cut-off for these calls is given here. Residues, ends and D or L forms follow the SMILES beside them. *: point of attachment. X1 = COc1nc(CCCN*)cnc1NS(=O)(=O)c1ccc(NC(=O)CCc2cccs2)cc1; Biotin = O=C1N[C@H]2[C@H](CS[C@H]2CCCCC(=O)*)N1; Ahx = NCCCCCC(=O)O

The target of one assay is T1, Mixed lineage kinase domain-like protein (Homo sapiens) (UniProt Q8NB16).
T1 sequence (whole entry): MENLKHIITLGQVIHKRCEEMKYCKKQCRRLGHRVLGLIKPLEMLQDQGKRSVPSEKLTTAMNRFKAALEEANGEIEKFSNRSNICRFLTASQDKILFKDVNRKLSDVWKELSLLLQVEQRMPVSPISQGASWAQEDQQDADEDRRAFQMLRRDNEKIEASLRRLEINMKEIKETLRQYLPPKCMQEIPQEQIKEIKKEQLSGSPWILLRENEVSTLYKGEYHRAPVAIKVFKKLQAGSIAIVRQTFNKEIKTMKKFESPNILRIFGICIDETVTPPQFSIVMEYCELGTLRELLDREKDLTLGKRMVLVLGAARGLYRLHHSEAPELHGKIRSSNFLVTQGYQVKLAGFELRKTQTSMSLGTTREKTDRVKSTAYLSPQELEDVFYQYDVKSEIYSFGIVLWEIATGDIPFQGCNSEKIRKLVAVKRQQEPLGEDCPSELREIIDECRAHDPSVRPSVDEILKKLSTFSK
Description: Competitive binding affinity to Myc-tagged MLKL (unknown origin) transfected in human HeLa cells at 20 nM by Western blot analysis in presence of biotin-labeled positive probe. It counts as cell-based.
Settings: not given
On the technique in general: In western blotting, separated proteins are transferred to a membrane and probed.
With `COc1nccnc1NS(=O)(=O)c1ccc(NC(=O)/C=C/c2ccc(Br)s2)cc1`, the outcome was inactive.

As to `COc1nccnc1NS(=O)(=O)c1ccc(NC(=O)/C=C/c2ccc([N+](=O)[O-])s2)cc1`, the outcome was Active.

As to `C#CCOc1nccnc1NS(=O)(=O)c1ccc(NC(=O)/C=C/c2sccc2[N+](=O)[O-])cc1`, the outcome was inactive.

Another assay concerns HT-29. The experiment in a line: Cytoprotective activity against TNF-alpha, smac mimetic, z-VAD-induced necrosis in human HT-29 cells assessed as cell survival by measuring cellular ATP level at 4 uM after 24 hrs by Cell Titer-Glo assay relative to control. It counts as functional.
Settings: not given
Background: ATP-based viability assays read luminescence as a measure of living cells.
As to `COc1nc(CCCNC(=O)CC[C@H](NC(=O)[C@@H]2CCCN2C(=O)[C@@H]2CCCN2C(=O)[C@@H]2CCCN2C(=O)[C@@H]2CCCN2C(=O)[C@@H]2CCCN2C(=O)[C@@H]2CCCN2C(=O)[C@@H]2CCCN2C(=O)[C@@H]2CCCN2C(=O)[C@@H]2CCCN2C(=O)CCCCCNC(=O)CCCC[C@@H]2SC[C@@H]3NC(=O)N[C@@H]32)C(N)=O)cnc1NS(=O)(=O)c1ccc(NC(=O)CCc2cccs2)cc1` ({Biotin-Ahx}-PPPPPPPPPE(X1)-NH2), the result was inactive.

Turning to `COc1nc(CCCNC(=O)CC[C@H](NC(=O)[C@@H]2CCCN2C(=O)[C@@H]2CCCN2C(=O)[C@@H]2CCCN2C(=O)[C@@H]2CCCN2C(=O)C2CCCN2C(=O)[C@@H]2CCCN2C(=O)[C@@H]2CCCN2C(=O)[C@@H]2CCCN2C(=O)[C@@H]2CCCN2C(=O)CCCCCNC(=O)CCCC[C@@H]2SC[C@@H]3NC(=O)N[C@@H]32)C(N)=O)cnc1NS(=O)(=O)c1ccc(NC(=O)/C=C/c2ccc([N+](=O)[O-])s2)cc1` (single isomer, unassigned), the result was Active.

Staying with this assay, now noted: HT-29, 24 h, read-out: Survival.
With `Cc1cc(C)nc(NS(=O)(=O)c2ccc(NC(=O)/C=C/c3ccc([N+](=O)[O-])s3)cc2)n1`, the viability at 4 µM is 79.2%.

Consider `COc1nccnc1NS(=O)(=O)c1ccc(NC(=O)CCc2cccs2)cc1`, for which the viability at 4 µM amounted to 30.4%.

For the compound `O=C(/C=C/c1ccc([N+](=O)[O-])s1)Nc1ccc(S(=O)(=O)Nc2nccnc2OCc2ccccc2)cc1`, the viability at 4 µM was 92.2%.

Turning to `COc1nccnc1NS(=O)(=O)c1ccc(NC(=O)/C=C/c2ccc(Br)s2)cc1`, the viability at 4 µM was determined as 31.8%.

For the compound `COc1nccnc1NS(=O)(=O)c1ccc(NC(=O)/C=C/c2ccc([N+](=O)[O-])s2)cc1`, the viability at 4 µM came out at 80.3%.

For the compound `O=C(/C=C/c1ccc([N+](=O)[O-])s1)Nc1ccc(S(=O)(=O)Nc2nccnc2O)cc1`, the viability at 4 µM is 90.4%.

On to `COc1nccnc1NS(=O)(=O)c1ccc(NC(=O)CCc2ccc([N+](=O)[O-])s2)cc1`, for which the viability at 4 µM was 29.9%.

`COc1nccnc1NS(=O)(=O)c1ccc(NC(=O)/C=C/c2ccc([N+](=O)[O-])cc2)cc1`: the viability at 4 µM amounted to 32.2%.

On to `C#CCOc1nccnc1NS(=O)(=O)c1ccc(NC(=O)/C=C/c2ccc([N+](=O)[O-])s2)cc1`, for which the viability at 4 µM is 90.8%.

As to `COc1nc(Br)cnc1NS(=O)(=O)c1ccc(NC(=O)/C=C/c2ccc([N+](=O)[O-])s2)cc1`, the viability at 4 µM was 90.8%.

As for `C#CCOc1nccnc1NS(=O)(=O)c1ccc(NC(=O)/C=C/c2sccc2[N+](=O)[O-])cc1`, the viability at 4 µM stood at 19.8%.

Consider `COc1nccnc1NS(=O)(=O)c1ccc(NC(=O)/C=C/c2cccc([N+](=O)[O-])c2)cc1`, for which the viability at 4 µM is 32%.

As for `COc1nccnc1NS(=O)(=O)c1ccc(NC(=O)/C=C/c2cccs2)cc1`, the viability at 4 µM was determined as 29.5%.
